Test results reported in US4088755A, “Medicament for remedying schizophrenia” (priority 1975, dated 1978).

Legend:
[1] = system: patients with schizophrenia; test: Clinical data: case reports (Cases 1 to 6) of schizophrenic patients on neuroleptics, L-Dopa and TRH; type: in vivo, human
[2] = system: patients with schizophrenia; test: as above; type: in vivo, human; remark: listed apart in the source
Procedure: The following clinical data as well as Examples are only for illustrative purposes and are not at all intended to limit or to restrict the scope of the invention.
On April 14, they came back to their home town and, on the following day, was admitted to hospital.
On July 10, TRH tartrate monohydrate 4 mg. (2.73 mg. in terms of free TRH) per day (2 mg. each in the morning and night) began to be administered orally in combination with thioridazine, 50 mg. per day, and trihexyphenydyl 6 mg. per day. […] On July 31, the administration of TRH was stopped.
In February 1961, the patient was admitted for the first time to Y hospital in a state of catatonic stupor. After receiving electroshock therapy and chlorpromazine, they were discharged from the hospital on April 19 of the same year. On May 26, 1966 they were again admitted to the same hospital this time in a state of catatonic excitement. […] Beginning on April 3, 1971, thioridazine, 300 mg. per day, and L-Dopa, 400 mg. daily, were added to the therapeutic regime. […] From the 9th day on, the dosage of L-Dopa was increased to 600 mg. daily. […] At the 19th week, the dosage of L-Dopa was reduced to 400 mg. and the drug was discontinued that week-end.
Hospital therapy was started with chlorpromazine, 400 mg. per day, and spiperone, 1 mg. per day. […] Consequently, the dosage of chlorpromazine was raised to 500 mg. per day. […] Beginning on August 9, penfluridol, 20 to 40 mg. twice weekly, was added to the preceding regimen of chlorpromazine 500 mg. daily. On June 26, 1973, the dosage of chlorpromazine was reduced to 200 mg. per day. Shortly thereafter, L-Dopa, 100 mg. daily, was added to the regimen from July 5 on. The dosage of L-Dopa was then increased gradually up to 600 mg. per day and finally discontinued on August 30.
On July 2, 1974, they were started on clocapramine, 75 mg. daily, to which TRH tartrate monohydrate, 4 mg. (2.73 mg. in terms of free TRH) daily, was orally added from July 29 on.

[3] = system: psychotic patients / patients with schizophrenia; type: in vivo, human
Source text: L-Pyroglutamyl-L-histidyl-L-prolinamide (thyrotropin-releasing hormone; hereinafter referred to as TRH) is a hypothalamic hormone which can be synthesized chemically and has been used as a diagnostic agent or as an antidepressant. […] It is known, however, that, although the onset of the effect of TRH on psychotic patients is very rapid, the duration of its effects is rather short. Thus, TRH alone cannot be a practical remedy for psychotic patients.
On the other hand, according to the present invention, a deterioration of the patients considered to be caused by TRH in the combined use is negligible and, therefore, determination of the dose is very easy.
Furthermore, although the effect of TRH on pyschotic patients is known to be transient, t therapeutic effects in accordance with the present invention last long even after withdrawal of TRH or its physiologically acceptable salts, alone or together with neuroleptics, which are administered to patients in combination. In this way, long lasting therapeutic effects, as well as the rapid onset of the effects are another excellent characteristic of this invention.

[4] = system: psychotic patients / patients with schizophrenia; details: cited from earlier work

**Q.** Which “Clinical outcome, Case 4, haloperidol” value ([1]; 4 mg daily initially, increased up to 100 mg) does the source give for `O=C(CCCN1CCC(O)(c2ccc(Cl)cc2)CC1)c1ccc(F)cc1` [Haloperidol] here?
**A.** Its value is “failed to elicit any appreciable symptomatic response”.

**Q.** Which “Clinical outcome, Case 2, L-Dopa with thioridazine (1971)” value ([2]; person, L-Dopa 400-600 mg daily with thioridazine 300 to 100 mg per day, 19th week) does the source give for `N[C@@H](Cc1ccc(O)c(O)c1)C(=O)O` [L-Dopa, L-3,4-dihydroxyphenylalanine] here?
**A.** Its value is “had no morbid experience and appeared to have a clear insight”.

**Q.** And the “Side-effects of L-Dopa in combined use” value ([3]; human, in vivo)?
**A.** The value was “an excessive does of L-Dopa results in the production of side-effects in the patients”.

**Q.** What about the “Effect of L-Dopa in small doses with conventionally used neuroleptics” value ([3]; schizophrenia, observed by the present inventors) of the same compound?
**A.** Its value is “marked improvement of the overall clinical picture in schizophrenia”.

**Q.** What about the “Clinical outcome, Case 3, L-Dopa with thioridazine” value ([1]; L-Dopa 300 mg daily with thioridazine 200 mg daily) of the same compound?
**A.** The value was “their spontaneity increased to an extent greater than that achieved before”.

**Q.** And the “Clinical outcome, Case 2, L-Dopa therapy (1973)” value ([1]; L-Dopa 100 up to 600 mg per day added to chlorpromazine 200 mg per day and penfluridol, autism and abulia persisted)?
**A.** The value was “His general clinical picture improved to a considerable extent”.

**Q.** What about the “Time condition remained the same after withdrawal of L-Dopa, Case 3” value ([1]; after about 5 months of usage with thioridazine) of the same compound?
**A.** Its value is “about 4 months”.

**Q.** What about the “Clinical outcome, Case 3, L-Dopa with chlorpromazine” value ([1]; person, L-Dopa 400 mg with chlorpromazine 300 mg per day, end of 3rd week) of the same compound?
**A.** The value was “an appreciable improvement in their facial expression”.

**Q.** What about the “Side effects, Case 3, L-Dopa 1000 mg daily” value ([1]; with chlorpromazine 300 mg per day) of the same compound?
**A.** The value was “they seemed irritated to some extent and complained of sleeping trouble”.

**Q.** What about the “Side effects, Case 3, L-Dopa 1200 mg” value ([1]; with chlorpromazine 300 mg per day, led to discontinuation) of the same compound?
**A.** Its value is “appearance of auditory hallucination”.

**Q.** Which results are given for `NC(=O)[C@@H]1CCCN1C(=O)[C@H](Cc1cnc[nH]1)NC(=O)[C@@H]1CCC(=O)N1` [TRH, L-Pyroglutamyl-L-histidyl-L-prolinamide]?
**A.** Time remission maintained after withdrawal of TRH, Case 2 ([2]; on clocapramine 75 mg daily alone, remission maintained most of the time): 4 months; Deterioration of the patients considered to be caused by TRH in the combined use ([3]; human, in vivo): negligible; Persistence of remission after withdrawal of TRH, Case 1 ([1]; TRH stopped July 31, other drugs continued): His state of remission has been maintained until now; Persistence of improvement after withdrawal of TRH, Case 5 ([1]; TRH stopped on 15th day): the improvement has continued even after withdrawal of TRH; Clinical outcome, Case 3, TRH with thioridazine ([1]; TRH tartrate monohydrate 8 mg daily (5.46 mg free TRH) orally with thioridazine 200 mg daily for two weeks, from 4th day): Their participation in work and recreational activities became more positive and their action became more agile than when they were placed on L-Dopa; Onset of subjective effect, Case 6 ([1]; i.v. TRH, patient felt light in the head and free from depressed feeling): One hour after the first injection; Persistence of effect of TRH therapy after discontinuation, Case 3 ([1]; on thioridazine alone): two; Clinical outcome, Case 6, intravenous TRH with neuroleptics ([1]; person, 730 μg TRH tartrate monohydrate (500 μg free TRH)/day i.v., 5 injections, with perphenazine 12 mg/day, diazepam 10 mg/day, vegetamim B 1 tablet/day): Remarkable improvement in the symptoms was recognized subjectively as well as objectively; Effect of TRH alone in patients with schizophrenia ([4]; The Lancet, July 7, 1973, pages 43 and 44): produce emotional warmth, lucidity of though and accessibility of psychotherapy; Duration of effects of TRH alone ([4]; psychotic patients): rather short; Onset of effect of TRH alone ([4]; psychotic patients): very rapid

**Q.** Which “Clinical outcome, Case 2, chlorpromazine with spiperone” value ([2]; chlorpromazine 400 mg per day and spiperone 1 mg per day, other symptoms virtually unaffected) does the source give for `CN(C)CCCN1c2ccccc2Sc2ccc(Cl)cc21` [chlorpromazine, Chlorpromazine] here?
**A.** Its value is “their negativism and psychomotor excitement seemed to disappear almost completely”.

**Q.** And the “Clinical outcome, Case 4, oral chlorpromazine” value ([1]; person, initial 100 mg daily, gradually increasing dose)?
**A.** Its value is “without result”.
